Data on 8 molecules can be found in PMC11022729 (Advanced Science, 2024).

Data set [1] addresses T1, human D3 receptor (Homo sapiens, UniProt P35462).
T1 construct: expressed in transfected cells; host or cells: CHO
The data set can be described thus: [3H]-spiperone competition binding assay, D3. The note with it: mean [CI 95%]. As to the method:
(§1) CHO cells stably expressing human dopamine D2short (D2R) and D3 receptor (D3R) were washed and harvested using PBS. […] The cell membrane homogenate was centrifuged (20 000 × g, 20 min, 4 °C), and the resulting cell pellet was resuspended in the binding buffer. Crude membrane extracts were kept at −80 °C until use. Before starting the experiments, cell membranes were thawed, homogenized by sonication (3 × 10 s), and stored in an ice‐cold binding buffer. […] Assays were performed at least in triplicate with appropriate concentrations ranging from 0.01 nM to 100 µM of the test compound. Non‐specific binding was determined using 10 µM haloperidol. By filtering through GF/B filters pretreated with 0.3% (m/v) polyethyleneimine, the bound radioligand was separated from free radioligand using a cell harvester. Radioactivity was measured using liquid scintillation counting. Data were evaluated using the GraphPad Prism 9 software (San Diego, CA, USA) with a nonlinear regression fit.

The subject of data set [2] is HEK293 cells. Put plainly: Live-cell high-content cytotoxicity multiplex assay. The data set is classed as cell-based. The note with it: 100 µM, 6 h. The protocol: To explore whether the compounds affected general cell functions, we performed a live‐cell high‐content assay that allowed for the simultaneous investigation of cellular viability, compound precipitation, and maintenance of membrane integrity and mitochondrial mass.^[ [25] ^]
To assess cell viability, a live cell high‐content screen was performed in HEK293T cells as described previously.^[ [25] ^] In brief, HEK293T cells (ATCC CRL‐1573) were cultured in DMEM plus L‐glutamine (high glucose) supplemented by 10% FBS (Gibco) and penicillin/streptomycin (Gibco). Cells were seeded at a density of 1500 cells/well in 384 well plates in culture medium (cell culture microplate, PS, f‐bottom, µClear, 781 091; Greiner). Cells were stained simultaneously with 60 nM Hoechst33342 (Thermo Scientific), 75 nM Mitotracker red (Invitrogen), 0.3 µL per well annexin V Alexa Fluor 680 conjugate (Invitrogen), and 25 nL per well BioTracker 488 green microtubule cytoskeleton dye (EMD Millipore). The fluorescence and cellular shape were measured after 6 h of compound exposure using a CQ1 high‐content confocal microscope (Yokogawa). […] Images were analyzed using the CellPathfinder software (Yokogawa). Cells were detected and gated in different cell populations as described previously^[ [47] ^] using a machine learning‐based algorithm. Briefly, compound precipitation was detected as Hoechst high‐intensity objects. […]

The target in data set [3] is T2, human Slack (Homo sapiens, UniProt Q5JUK3).
T2 construct: host or cells: HEK293
T2 sequence (Q5JUK3 1-1230): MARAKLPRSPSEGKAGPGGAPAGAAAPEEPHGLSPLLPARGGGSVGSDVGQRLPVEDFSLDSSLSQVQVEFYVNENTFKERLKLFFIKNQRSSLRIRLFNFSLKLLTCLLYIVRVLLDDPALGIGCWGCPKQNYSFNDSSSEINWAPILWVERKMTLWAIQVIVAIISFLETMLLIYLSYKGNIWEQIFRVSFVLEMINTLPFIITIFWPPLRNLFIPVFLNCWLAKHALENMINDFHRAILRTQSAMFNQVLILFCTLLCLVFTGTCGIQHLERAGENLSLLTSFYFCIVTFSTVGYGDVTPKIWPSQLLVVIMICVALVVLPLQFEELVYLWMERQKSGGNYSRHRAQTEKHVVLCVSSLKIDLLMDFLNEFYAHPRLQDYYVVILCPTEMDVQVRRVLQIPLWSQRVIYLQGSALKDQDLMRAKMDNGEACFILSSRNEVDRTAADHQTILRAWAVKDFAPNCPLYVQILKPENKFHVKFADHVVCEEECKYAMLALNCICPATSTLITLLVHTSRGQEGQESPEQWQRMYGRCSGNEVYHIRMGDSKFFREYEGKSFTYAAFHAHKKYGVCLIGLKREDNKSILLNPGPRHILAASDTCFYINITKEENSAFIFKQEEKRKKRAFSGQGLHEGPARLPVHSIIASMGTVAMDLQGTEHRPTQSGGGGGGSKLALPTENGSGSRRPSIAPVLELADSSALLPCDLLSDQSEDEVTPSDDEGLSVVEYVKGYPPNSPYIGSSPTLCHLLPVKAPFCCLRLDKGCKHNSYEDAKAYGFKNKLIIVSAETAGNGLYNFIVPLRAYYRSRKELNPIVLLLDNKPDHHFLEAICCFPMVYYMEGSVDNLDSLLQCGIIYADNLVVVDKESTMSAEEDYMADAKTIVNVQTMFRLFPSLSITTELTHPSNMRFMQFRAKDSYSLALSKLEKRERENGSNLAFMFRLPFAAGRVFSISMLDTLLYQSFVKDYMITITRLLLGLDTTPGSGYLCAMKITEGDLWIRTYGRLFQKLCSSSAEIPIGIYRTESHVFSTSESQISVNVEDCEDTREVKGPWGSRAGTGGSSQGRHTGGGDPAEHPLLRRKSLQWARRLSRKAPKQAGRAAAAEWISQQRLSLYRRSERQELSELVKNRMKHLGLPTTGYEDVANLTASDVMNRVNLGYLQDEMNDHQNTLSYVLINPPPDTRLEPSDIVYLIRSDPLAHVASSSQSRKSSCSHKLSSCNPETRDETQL
The data set can be described thus: FluxOR potassium ion channel assay in HEK-Slack cells. The data set is classed as cell-based. The note with it: for EC50: HEK-Slack cells, Na+-free assay buffer, mean (95% confidence interval). As to the method: The functional activity of this series of compounds against human Slack was determined using a cell‐based FluxOR potassium ion channel assay in cultured HEK293 cells stably expressing human Slack (herein referred to as HEK‐Slack cells) and a Na^+‐free assay buffer to prevent compound‐independent Slack activation by monovalent cations.^[ [14], [24] ^] […] Of the 114 newly synthesized compounds, 31 acted as Slack activators to varying extents. Accordingly, we deemed eight of these as the most interesting candidates.
To determine the Slack‐activating efficacy and potency of the novel compounds, a commercial FluxOR potassium ion channel assay (#10 017; Invitrogen) was used. HEK‐Slack cells were plated at a density of 50 000 cells per well on a poly‐D‐lysine coated (75 µg mL^−1, Sigma–Aldrich) 96‐well, black‐walled microplate with clear bottom (#655 090; Greiner Bio‐One) in DMEM (100 µL per well) containing 10% FBS and 1% penicillin/streptomycin 24 h prior to assaying. In the initial experiments shown in Figure S3A–F (Supporting Information), HEK‐Slack cells were plated at a density of 100 000 cells/well 48 h prior to the assay. On the day of the experiment, the cells were loaded with FluxOR dye according to the manufacturer's protocol. A Na^+‐free assay buffer, adjusted to pH 7.4 with KOH, containing 140 mM choline chloride, 5 mM KCl, 2 mM CaCl2, 2 mM MgSO4, 10 mM HEPES, and 5.55 mM glucose was used. To reduce background fluorescence, all assay components were complemented with a 10% BackDrop Background Suppressor (#B10511; Invitrogen).
All compounds were prepared as a 333 mM stock in DMSO and diluted on the experimental day to a final concentration of 100, 50, 25, 12.5, 6.25, 3.125, or 1.5625 µM in an assay buffer with DMSO adjusted to 0.03%. Before treatment, the cells were washed, and the medium was exchanged for the assay buffer. In a total volume of 90 µL per well, the cells were then incubated for 30 min at 37 °C with compounds at the indicated concentrations, or 0.03% DMSO alone as the vehicle. […] Fluorescence was measured using an Infinite M200 microplate reader (Tecan) with excitation at 485 nm (9 nm bandwidth) and emission at 525 nm (20 nm bandwidth) in the bottom read mode. First, the baseline fluorescence of the individual wells was established. Thereafter cells were stimulated with 20 µL Tl2SO4 (5 mM) solution injected at 100 µL s^−1, and fluorescence was further recorded for 100 s. Assays were run in triplicate. For all time points, the ratio of fluorescence to baseline fluorescence was calculated first for individual wells, and the average was then used.
Dose‐response curves comprising six concentrations were obtained in triplets using fluorescence/fluorescenceBaseline ratios at the 100th s.

For data set [4], the target named is T3, human D2S receptor (Homo sapiens, UniProt P14416).
T3 construct: expressed in transfected cells; host or cells: CHO
The data set can be described thus: [3H]-spiperone competition binding assay, D2. To be noted: mean [CI 95%]. The protocol:
as §1

Data set [5] in a line: Metabolic stability assay in rat liver microsomes. To be noted: 10 µM, 15, 30 and 60 min. The data set is classed as in vitro ADME. The protocol:
We next assessed the metabolic stability of these compounds (10 µM) in rat liver microsomes (Figure 2A). […] Therefore, we assumed that the occupation of metabolically labile sites at the aromatic core and the reduction in electron density at the oxidizable nitrogen atom of the piperazine ring might increase metabolic stability. Indeed, both the introduction of fluorine at R^2 and the introduction of an electron‐withdrawing carboxylic acid linker at R^3 improved metabolic stability. The substitution of chlorine with a trifluoromethyl group at R^1 was also beneficial. In contrast, homopiperazine and hydroxy linkers were metabolically labile.
The solubilized test compound (5 µL, final concentration 10 µM) was preincubated at 37 °C in 432 µL phosphate buffer (0.1 M, pH 7.4) together with 50 µL NADPH regenerating system (30 mM glucose‐6‐phosphate, 4 U mL^−1 glucose 6‐phosphate dehydrogenase, 10 mM NADP, and 30 mM MgCl2). After 5 min, the reaction started upon the addition of 13 µL of microsome mix from the liver of Sprague‐Dawley rats (Invitrogen; 20 mg protein per mL in 0.1 M phosphate buffer) in a shaking water bath at 37 °C. The reaction was stopped by adding 500 µL ice‐cold methanol at 0, 15, 30, and 60 min. The samples were centrifuged at 5000 × g for 5 min at 4 °C and the test compound was quantified from the supernatants by HPLC; the composition of the mobile phase was adapted to the test compound in a range of MeOH 40−90% and water (0.1% formic acid) 10−60%. Flow rate: 1 mL min^−1; stationary phase: Purospher STAR, RP18, 5 µm, 125 × 4; precolumn: Purospher STAR, RP18, 5 µm, 4 × 4; detection wavelength: 254 and 280 nm; injection volume: 50 µL. Control samples were used to evaluate the stability of the test compounds in the reaction mixture. The first control was without NADPH, which is needed for the enzymatic activity of the microsomes, the second control was with inactivated microsomes (incubated for 20 min at 90 °C), and the third control was without the test compound (to determine the baseline). The amounts of test compounds were quantified using an external calibration curve.
In general terms: Liver microsomes are vesicles of endoplasmic reticulum, rich in cytochrome P450 enzymes.

Data set [6] relates to mice. Put plainly: Pulse oximetry in conscious, freely moving mice. To be noted: 10 mg kg−1 i.p., observation period of 30 min. The protocol:
To measure cardiovascular function, a pulse oximeter (MouseOX Plus, Starr Life Sciences Corp.) was used in conscious, freely moving mice. After three consecutive days of habituating the mice to the collar clip for at least 30 min, baseline measurements were performed. […] All the datasets were sampled at 1 Hz, error‐corrected according to the manufacturer's instructions, and averaged over 300 s for each time point.

Broadly, the Ki is a dissociation constant, usually derived from enzyme kinetics or from competition with a known ligand. As usually defined, the Emax is the size of the effect at its maximum, as opposed to the concentration needed. As a reminder, the EC50 is the concentration needed to bring the measured effect to its halfway point. Low readings indicate higher potency in that assay, high ones lower potency in that assay.

Where a name gives a salt, the structure may show the parent alone.

T3 sequence (P14416 1-414 isoform P14416-2): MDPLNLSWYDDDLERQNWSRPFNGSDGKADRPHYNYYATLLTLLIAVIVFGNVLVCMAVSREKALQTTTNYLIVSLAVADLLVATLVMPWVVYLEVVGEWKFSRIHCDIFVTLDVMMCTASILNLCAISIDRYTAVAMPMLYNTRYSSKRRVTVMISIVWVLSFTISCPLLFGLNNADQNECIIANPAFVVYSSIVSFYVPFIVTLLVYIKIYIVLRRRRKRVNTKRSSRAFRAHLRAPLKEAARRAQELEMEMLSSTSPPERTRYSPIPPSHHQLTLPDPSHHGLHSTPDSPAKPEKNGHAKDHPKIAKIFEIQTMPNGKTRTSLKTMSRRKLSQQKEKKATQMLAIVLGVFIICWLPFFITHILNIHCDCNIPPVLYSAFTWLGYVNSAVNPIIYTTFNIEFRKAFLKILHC
T1 sequence (P35462 whole entry): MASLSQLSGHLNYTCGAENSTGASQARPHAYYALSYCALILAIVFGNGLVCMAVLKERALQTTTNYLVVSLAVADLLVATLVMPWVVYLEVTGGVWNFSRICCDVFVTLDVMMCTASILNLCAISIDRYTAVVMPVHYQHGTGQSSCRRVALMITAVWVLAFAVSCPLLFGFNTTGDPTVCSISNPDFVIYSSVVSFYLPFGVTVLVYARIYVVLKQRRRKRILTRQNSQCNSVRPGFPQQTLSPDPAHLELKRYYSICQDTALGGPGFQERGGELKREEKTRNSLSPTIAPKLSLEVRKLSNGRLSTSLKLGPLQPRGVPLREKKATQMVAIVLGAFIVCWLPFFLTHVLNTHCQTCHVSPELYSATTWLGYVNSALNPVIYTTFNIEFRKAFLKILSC

In turn, `CN1CCN(C2=Nc3ccccc3Oc3ccc(C(F)(F)F)cc32)CC1` [Compound 1] returned a Ki in data set [1] of 12.2 nM. Besides, in data set [2], the compound precipitation entry was “compound precipitation was only detected”. In data set [3], the Emax was found to be 114% and the EC50 came to 6300 nM. Moreover, in data set [4], the Ki turned out to be 3.6 nM.

Take `CN1CCCN(C2=Nc3ccccc3Oc3ccc(C(F)(F)F)cc32)CC1` [Compound 2]: the Ki in data set [1] was 62.4 nM; in data set [4] it was 82.8 nM. Moreover, the Emax in data set [3] worked out at 63.1%. In addition, in data set [3], the EC50 was found to be 3200 nM.

On to `CN1CCN(C2=Nc3cc(F)ccc3Oc3ccc(C(F)(F)F)cc32)CC1` [Compound 3], for which affinity in data set [1] was put at a Ki of 22.6 nM. In data set [3], this molecule displayed an Emax of 199% and an EC50 of 41500 nM. This molecule also gave a Ki in data set [4] of 2.89 nM.

In data set [1], `OCCN1CCN(C2=Nc3ccccc3Oc3ccc(Cl)cc32)CC1` [Compound 4] registered an inhibition constant Ki of 176 nM. Also, in data set [3], the Emax came to 223% and the EC50 was 26000 nM. In addition, the Ki in data set [4] came to 50 nM.

On to `OCCOCCN1CCN(C2=Nc3ccccc3Sc3ccc(Cl)cc32)CC1` [Compound 5], for which the Ki in data set [1] was 63.4 nM. Moreover, in data set [3], the Emax came to 87.4% and it took 30000 nM to reach a half-maximal effect (EC50). This molecule also gave an inhibition constant (Ki) in data set [4] of 44.9 nM.

Molecule `O=C(O)COCCN1CCN(C2=Nc3ccccc3Oc3ccc(C(F)(F)F)cc32)CC1` [Compound 7] returned a Ki in data set [1] of 40.7 nM. Further, in data set [3], the Emax came out at 177% and it took 62500 nM to reach a half-maximal effect (EC50). The molecule further returned a Ki in data set [4] of 27.4 nM. The metabolic stability result in data set [5] is recorded as “highest metabolic stabilities”.

The molecule `O=C(O)COCCN1CCCN(C2=Nc3ccccc3Oc3ccc(C(F)(F)F)cc32)CC1` [Compound 8] yielded a Ki in data set [1] of 421 nM. Further, in data set [3], the Emax came to 186% and the EC50 was 50900 nM. Besides, in data set [4], the Ki was 134 nM.

As to `CN1CC[C@]23c4c5ccc(O)c4O[C@H]2[C@@H](O)C=C[C@H]3[C@H]1C5` [morphine, morphine sulfate pentahydrate, reference compound], in data set [6], the breath rate entry was “reduced” and the heart rate result is “reduced”.
